Legend:
AlaA = biological target: T1, AlaA (Escherichia coli, UniProt P0A959); experiment: X-ray crystal structure, […] Å; format: binding; details: covalent (internal aldimine, Schiff base with Lys240); acetate from crystallisation solution also in active site; crystals in 0.25 M lithium acetate, 22% PEG 3350, 20 °C
T1 construct: full length, 405 residues, N-terminal His6-TEV tag kept (pETM11, pAlaA), expressed in E. coli BL21(DE3), homodimer about 90 kDa

[1] = biological target: the molecule itself; experiment: SEC; Superdex 200 10/300 GL after HisTrap, 4°C; elution mass estimated

With Cc1ncc(COP(=O)(O)O)c(C=O)c1O [PLP] the “X-ray crystal structure, 2.11 Å” value (AlaA) was “An intact Schiff base linkage between Lys240 and PLP”.

B1: His-tagged AlaA (alanine aminotransferase AlaA of Escherichia coli) (enzyme, UniProt P0A959 1-405, looked up)
chain: MSPIEKSSKLENVCYDIRGPVLKEAKRLEEEGNKVLKLNIGNPAPFGFDAPDEILVDVIRNLPTAQGYCDSKGLYSARKAIMQHYQARGMRDVTVEDIYIGNGVSELIVQAMQALLNSGDEMLVPAPDYPLWTAAVSLSSGKAVHYLCDESSDWFPDLDDIRAKITPRTRGIVIINPNNPTGAVYSKELLMEIVEIARQHNLIIFADEIYDKILYDDAEHHSIAPLAPDLLTITFNGLSKTYRVAGFRQGWMVLNGPKKHAKGYIEGLEMLASMRLCANVPAQHAIQTALGGYQSISEFITPGGRLYEQRNRAWELINDIPGVSCVKPRGALYMFPKIDAKRFNIHDDQKMVLDFLLQEKVLLVQGTAFNWPWPDHFRIVTLPRVDDIELSLSKFARFLSGYHQL
modifications: Lys240 in Schiff base linkage with pyridoxal 5'-phosphate (LLP, Lys-PLP)
notes: AlaA, alanine aminotransferase (glutamic-pyruvic transaminase), Escherichia coli, 405-amino-acid monomer; alaA amplified from E. coli XL1-Blue genomic DNA into pETM11; pETM11 adds an N-terminal hexahistidine tag and a TEV protease cleavage site; Modelled residues 1-404 (chain A) and 2-405 (chain B); also called full-length AlaA; His6-AcTev-AlaA; source: E. coli BL21(DE3), purified (HisTrap, …)
In the case of B1, the “stoichiometry N” value [1] is reported as 2.

Source: PMC4094517, “Structural Analysis and Mutant Growth Properties Reveal Distinctive Enzymatic and Cellular Roles for the Three Major L-Alanine Transaminases of Escherichia coli” (PLoS ONE, 2014)
